In US12414940B2, “Method of treating malignant tumor by azabicyclic compound” (TAIHO PHARMACEUTICAL CO., LTD., priority 2018, dated 2025):

Experiments:
[1] = system: progressive or unresectable GIST; settings: group given regorafenib, third-line treatment of progressive or unresectable GIST; cited from earlier work
rat eye tissue = experiment: Histopathological study in rat eye tissue (hematoxylin and eosin, TUNEL); format: in vivo, Sprague-Dawley (SD) rats; settings: 10.0 mg/kg/day intravenous three times a week for 2 weeks; eyes collected 24 hours after final dose
[2] = Quantification of plasma, tumor and retinal tissue exposure in tumor-bearing rats; format: in vivo, F344 nude rats; settings: intravenous administration, tumor-bearing rats
Method: After the administration, plasma, the retina, and tumor were collected according to a sampling schedule. The retina or tumor samples were homogenized in phosphate-buffered saline. The plasma and the homogenized samples were analyzed by liquid chromatography-tandem mass spectrometry or high-performance liquid chromatography. The pharmacokinetics of the compound 1 were calculated by use of the non-compartmental analysis method (Methods Mol Biol 2012; 929: 377-89).

For `CNC(=O)c1cc(Oc2ccc(NC(=O)Nc3ccc(Cl)c(C(F)(F)F)c3)c(F)c2)ccn1` [regorafenib], the “median PFS” value [1] is given as 4.8 month.

In the case of `CCNC(=O)c1noc(-c2cc(C(C)C)c(O)cc2O)c1-c1ccc(CN2CCOCC2)cc1` [NVP-AUY922, reference compound], the “histopathological change in the outer nuclear layer of the retina” value (rat eye tissue) is reported as “marked degeneration and disarrangement”, the “number of TUNEL-positive apoptotic cells” value (rat eye tissue) is reported as “considerably increase” and the “presence in the retina 24 hours after administration” value [2] is reported as “detected from the retina even 24 hours after administration”.
